We go through 18 compounds from PMC7816197 (Journal of Medicinal Chemistry, 2020).

Series [1] has as its target human NAPE-PLD (Homo sapiens, UniProt Q6IQ20). Put plainly: NAPE-PLD PED6 surrogate substrate activity assay. Conditions: for fold increase in potency/activity: compared to 2; for fold drop in potency: compared to hit 2; for inhibitory activity in words: PED6 assay, human NAPE-PLD. Format: biochemical.
In series [2] the test system is HEK293 cells. Particulars: cited from earlier work.
For series [3], the system named is Neuro-2a cells. Particulars: cited from earlier work.
The subject of series [4] is brains of freely moving mice. Particulars: cited from earlier work.
The conditions of series [5]: not suited for in vivo use; cited from earlier work.

Chain of human NAPE-PLD (Q6IQ20 whole entry): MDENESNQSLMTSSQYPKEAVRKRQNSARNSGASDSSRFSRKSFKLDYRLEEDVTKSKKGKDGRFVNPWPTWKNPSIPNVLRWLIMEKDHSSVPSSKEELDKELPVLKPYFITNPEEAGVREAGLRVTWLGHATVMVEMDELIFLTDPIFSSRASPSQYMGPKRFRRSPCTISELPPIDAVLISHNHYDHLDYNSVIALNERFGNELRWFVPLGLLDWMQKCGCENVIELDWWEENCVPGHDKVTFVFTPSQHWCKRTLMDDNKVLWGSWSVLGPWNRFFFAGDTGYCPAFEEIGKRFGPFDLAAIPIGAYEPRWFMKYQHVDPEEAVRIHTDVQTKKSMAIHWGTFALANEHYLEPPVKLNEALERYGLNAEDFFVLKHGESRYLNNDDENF

Regarding `O=C(NCC1CC1)c1cc(N2CCOCC2)nc(N2CCCC(c3ccccc3)C2)n1` (racemic) [Compound 62, (±)-N-(Cyclopropylmethyl)-6-morpholino-2-(3-phenylpiperidin-1-yl)pyrimidine-4-carboxamide], in series [1], the “fold increase in potency/activity” value came to 2 fold.

For the compound `O=C(NCC1CC1)c1cc(N2CCOCC2)nc(N2CCCC2Cc2ccccc2)n1` (racemic) [Compound 63, (±)-2-(2-Benzylpyrrolidin-1-yl)-N-(cyclopropylmethyl)-6-morpholinopyrimidine-4-carboxamide], in series [1], the “fold increase in potency/activity” value is listed as 2 fold.

In general, IC50 refers to the concentration at which inhibition is half-maximal. Low values mean greater potency, high ones weaker potency. As to `O=c1[nH]c(=O)c2cc(S(=O)(=O)Nc3ccc(-c4ccncc4)cc3)ccc2[nH]1` [ARN19874], in series [1], half-maximal inhibition (IC50) required 54 µM. In series [2], the NAE levels result is “did not affect” and the NAPE levels entry is “increase”.

On to `O=C(NCC1CC1)c1cc(N2CC[C@H](O)C2)nc(N2CCC[C@@H](c3ccccc3)C2)n1` [Compound 1, N-(Cyclopropylmethyl)-6-((S)-3-hydroxypyrrolidin-1-yl)-2-((S)-3-phenylpiperidin-1-yl)pyrimidine-4-carboxamide], for which, in series [1] (at a dose of 10 μM, full efficacy), the “turnover of PED6” value is “completely blocked”. Moreover, the “fold increase in potency/activity” value in series [1] was found to be 10 fold. In addition, the “NAE levels including anandamide” value in series [3] and in series [4] (brains of freely moving mice) was “reduced” in each case. In series [4] (30 mg/kg, intraperitoneal injection), the “anandamide levels in mouse brain” value is reported as “decreased”.

Regarding `CN(CCc1ccccc1)c1cc(N2CCOCC2)cc(C(=O)NCC2CC2)n1` [Compound 3, N-(Cyclopropylmethyl)-6-(methyl(phenethyl)amino)-4-morpholino-picolinamide], the “fold drop in potency” value in series [1] is given as 10 fold.

Regarding `CN(CCc1ccccc1)c1nc(C(=O)NCC2CC2)nc(N2CCOCC2)n1` [Compound 6, N-(Cyclopropylmethyl)-4-(methyl(phenethyl)amino)-6-morpholino-1,3,5-triazine-2-carboxamide], the “inhibitory activity in words” value in series [1] was “completely inactive”.

Take `CN(CC1CC1)C(=O)c1cc(N2CCOCC2)nc(N(C)CCc2ccccc2)n1` [Compound 7, N-(Cyclopropylmethyl)-N-methyl-2-(methyl(phenethyl)amino)-6-morpholinopyrimidine-4-carboxamide]: the “inhibitory activity in words” value in series [1] is listed as “complete loss of potency”.

Regarding `CC(C)CNC(=O)c1cc(N2CCOCC2)nc(N(C)CCc2ccccc2)n1` [Compound 15, N-Isobutyl-2-(methyl(phenethyl)amino)-6-morpholinopyrimidine-4-carboxamide], in series [1], the “fold drop in potency” value was 10 fold.

As for `CN(CCc1ccccc1)c1nc(NC(=O)CC2CC2)cc(N2CCOCC2)n1` [Compound 30, 2-Cyclopropyl-N-(2-(methyl(phenethyl)amino)-6-morpholinopyrimidin-4-yl)acetamide], in series [1], the “fold drop in potency” value is 10 fold.

Regarding `O=C(NCC1CC1)c1cc(N2CCOCC2)nc(Cl)n1` [Compound 31, 2-Chloro-N-(cyclopropylmethyl)-6-morpholinopyrimidine-4-carboxamide], in series [1], the “inhibitory activity in words” value is “inactive”.

Regarding `O=C(NCC1CC1)c1cc(N2CCOCC2)ncn1` [Compound 32, N-(Cyclopropylmethyl)-6-morpholinopyrimidine-4-carboxamide], in series [1], the “inhibitory activity in words” value was “inactive”.

Take `CC(C)N(CCc1ccccc1)c1nc(C(=O)NCC2CC2)cc(N2CCOCC2)n1` [Compound 55, N-(Cyclopropylmethyl)-2-(isopropyl(phenethyl)amino)-6-morpholinopyrimidine-4-carboxamide]: in series [1], the “fold increase in potency/activity” value came to 2 fold.

`CN(CCc1ccccc1)c1nc(C(=O)NCC2CC2)cc(N2CCCC(F)(F)C2)n1` [Compound 72, N-(Cyclopropylmethyl)-6-(3,3-difluoropiperidin-1-yl)-2-(methyl(phenethyl)amino)pyrimidine-4-carboxamide]: the “fold increase in potency/activity” value in series [1] amounted to 2 fold.

In the case of `CN(C)c1cc(C(=O)NCC2CC2)nc(N(C)CCc2ccccc2)n1` [Compound 81, N-(Cyclopropylmethyl)-6-(dimethylamino)-2-(methyl(phenethyl)amino)pyrimidine-4-carboxamide], in series [1], the “fold increase in potency/activity” value is 2 fold.

For the compound `CN(CCc1ccccc1)c1nc(C(=O)NCC2CC2)cc(N2CCCC2)n1` [Compound 87, N-(Cyclopropylmethyl)-2-(methyl(phenethyl)amino)-6-(pyrrolidin-1-yl)pyrimidine-4-carboxamide], the “fold increase in potency/activity” value in series [1] is about 4 fold.

In series [1] ((R,R) enantiomer compared to 1), `O=C(NCC1CC1)c1cc(N2CC[C@@H](O)C2)nc(N2CCC[C@H](c3ccccc3)C2)n1` [Compound 107, N-(Cyclopropylmethyl)-6-((R)-3-hydroxypyrrolidin-1-yl)-2-((R)-3-phenylpiperidin-1-yl)pyrimidine-4-carboxamide] came in with a fold-reduced activity of 3 fold.

On to `Oc1c(Cl)cc(Cl)c(Cl)c1Cc1c(O)c(Cl)cc(Cl)c1Cl` [hexachlorophene], for which, in series [5], the neurotoxicity entry is “neurotoxic effects”.

As to `C[C@H](CCC(=O)O)[C@H]1CC[C@H]2[C@@H]3CC[C@@H]4C[C@H](O)CC[C@]4(C)[C@H]3CC[C@]12C` [lithocholic acid, reference compound], the “inhibitory activity in words” value in series [1] is on record as “not active”.
